Reference: patent publication US20250052985A1, “SYSTEM AND METHOD FOR QUANTITATIVE PHASE IMAGING FOR MULTI-PARAMETRIC SCREENING OF TUMOR THERAPY RESPONSE” (UNIVERSITY OF UTAH RESEARCH FOUNDATION, priority 2023, published 2025)
Several values for one entry are separate records, joined by “and”; a condition that tells them apart may be missing. Equal values may be shown once.

Tests used:
[1] = system: MCF-7 cells; assay: CellTiter-Glo (CTG) ATP viability assay, MCF-7; assay type: cell-based; conditions: for Min Asymptote: MCF-7, Hill fit of luminescence normalized to solvent control, one line per replicate
Procedure: (§1) CTG (e.g., read by the CTG reader 115) is a cell viability assay that quantifies the amount of ATP present at the end of an experiment as an indicator of the number of live cells. The electronic controller 155 measures ATP content in each condition as a readout by a luminescent signal, which is normalized by the luminescence of the control (e.g., a control well) to determine cell viability relative to on-plate controls. In some embodiments, the CTG assay is performed by first removing 100 μL of media from each well on the well-plate 105, which is then replaced with an equal amount of CellTiter-Glo reagent (e.g., Promega, G7572). Assayed plates may be shaken at 500 RPM for 20 minutes and allowed to rest for 10 minutes. In some instances, 100 μL of volume from each well is transferred to a white 96-well plate (e.g., Perkin Elmer, 6005680). The electronic controller 155 collects luminescence data from each well using an Envision plate reader (e.g., Perkin Elmer) and normalized against the solvent control to measure ATP content. The electronic controller 155 fits a 4-parameter hill curve to the dose response to determine the EC50 and depth of response.

[2] = system: MDA-MB-231 cells; assay: CellTiter-Glo (CTG) ATP viability assay, MDA-MB-231; assay type: cell-based; conditions: for Min Asymptote: MDA-MB-231, Hill fit of luminescence normalized to solvent control, one line per replicate
Procedure: as §1

[3] = system: MDA-MB-231 cells; assay: Quantitative phase imaging (QPI) growth response, MDA-MB-231; assay type: cell-based; design: DoR QPI: scale not given here; ToR 20 μM: unit not given here; conditions: for Max Asymptote / Min Asymptote: MDA-MB-231, 4-parameter Hill fit of mean SGR vs concentration, one line per replicate; for log10(EC50): EC50 in μM per Table 1
From the text: (§2) In some embodiments, breast cancer cell lines are imaged, representing diverse clinical subtypes, summarized in Table 2 below, using a QPI microscope (FIG. 1A) based on differential phase contrast (DPC) microscopy and phase reconstruction via a QPI microscope system. DPC is used for image acquisition and phase reconstruction because DPC's flexible design may be customized for high throughput phase measurements. […] As illustrated in the embodiment of FIG. 1A, a QPI microscope system 100 conducts assays in a 96-well plate (e.g., a well-plate 105) with 6-point dose response curves and up to five therapies in triplicate including solvent controls, summarized in Table 4 below. As described below, in reference to FIG. 1A, a growth response of cells is measured noninvasively using QPI via a QPI microscope system 110 before being assayed using a CTG reader 115.
(§3) FIG. 1B illustrates a timeline plot 200 showing two plates (e.g., two, separate well-plates 105) set up in parallel to measure cell viability. With reference to FIG. 1B, two plates are set-up simultaneously for each experiment. A first plate 205 is incubated for 27 hours (h) post drug exposure prior to CTG analysis (3 h equilibration+24 h of imaging), which measures cell adenosine triphosphate (ATP) content as a surrogate for cell viability. A second plate 210 is imaged for 72 h after 3 h equilibration (e.g., 75 h) and followed by CTG. […] The imaging locations are imaged for 72 h, as shown by images 1700-1715 of FIG. 7.
(§4) In some embodiments, a dose-dependent change in growth, as indicated by a change in the rate of mass accumulation or loss, is a parameter that can be extracted from QPI dose-response data. […] Individual specific growth rate measurements are indicated by points in the distribution of the graph 1200 of FIG. 2A. Blue is indicative of the DMSO control and red is indicative of doxorubicin. The black outline is a kernel density function fit to the distribution of specific growth rates for each condition (e.g., *p<0.05, **p<0.01). In some embodiments, the average SGR of each condition is fit to a sigmoid dose-response curve using a Hill equation. For example, computed logistic fit parameters using a 4-parameter Hill model via the QPI microscope system 110 for all conditions are summarized in Tables 5-8 below. To determine if there is a response, as illustrated by FIG. 2B, the QPI microscope system 110 tests goodness of fit, adjusts for degrees of freedom using an F-test at significance p<0.01 by comparison to a flat line, as an indicator of no response. For cases with a better fit to the Hill equation, the 4-parameter Hill curve may be used by the QPI microscope system 110 to determine the EC50, a measure of sensitivity to therapy because it represents the effective concentration at which 50% of the cells respond to therapy, as illustrated by FIG. 10. […] A 4-parameter Hill curve is fit to each dose response plot to extract the depth of response and EC50 for each cell/drug pair. A flat line represents no response due to failure of the F-test to reject the null hypothesis that the logistic fit is indistinguishable from a flat line. […] Each color indicates a different drug or therapy used.

[4] = system: MCF-7 cells; assay: cells
From the text: as §2, §3, §4

[5] = system: BT-474 cells; assay: cells; conditions: for Max Asymptote / Min Asymptote: BT-474, 4-parameter Hill fit of mean SGR vs concentration, one line per replicate; for Hill Slope / log10(EC50): BT-474, Hill fit; for log10(EC50): EC50 in μM per Table 1
From the text: as §2, §3, §4

In the case of `CCC(=C(c1ccc(O)cc1)c1ccc(OCCN(C)C)cc1)c1ccccc1` [4HT, 4-hydroxy-Tamoxifen], the “Min Asymptote” value ([1]; 24 h CTG) is reported as 7.96E−12 and 5.22E−09, the “log10(EC50)” value ([1]; 72 h CTG, MCF-7, Hill fit) is reported as −0.5373 and −0.5549 and −0.6776 and the “Min Asymptote” value ([1]; 72 h CTG) is reported as 2.23E−14 and 2.22E−14 and 3.01E−12. For the same compound, the EC50 ([1]; MCF-7 cell line, CellTiter-Glo, read-out: EC50, CTG (converted)) was 3.9 µM, the “DoR CTG” value ([1]; MCF-7 cell line, depth of response, CellTiter-Glo) was 1.0 and the “Hill Slope” value ([2]; 24 h CTG, MDA-MB-231, Hill fit) was 5.351. The “log10(EC50)” value ([2]; 24 h CTG, MDA-MB-231, Hill fit) was −0.5158, the “Min Asymptote” value ([2]; 24 h CTG) was 0.393 and the “log10(EC50)” value ([2]; 72 h CTG, MDA-MB-231, Hill fit) was −0.9458. For the same compound, the “Min Asymptote” value ([2]; 72 h CTG) was 0.003315 and 0.01516 (2×), the EC50 ([2]; MDA-MB-231 cell line, CellTiter-Glo, read-out: EC50, CTG) was 6.9 µM and the “DoR CTG” value ([2]; MDA-MB-231 cell line, depth of response, CellTiter-Glo) was 1.0. The “Max Asymptote” value ([3]; 24 h QPI) was 0.02875 and 0.03107 and 0.03303, the “Min Asymptote” value ([3]; 24 h QPI) was 0.007676 and 0.007611 and −0.003024 and the “log10(EC50)” value ([3]; 24 h QPI, MDA-MB-231, Hill fit) was −1.2332 and −1.2248 and −1.2436. The “Max Asymptote” value ([3]; 72 h QPI) was −0.006134 and −0.01506 and −0.008455, the “Min Asymptote” value ([3]; 72 h QPI) was 0.02885 and 0.03029 and 0.03246 and the “Hill Slope” value ([3]; 72 h QPI, MDA-MB-231, Hill fit) was 2.0951 and 2.4347 and 1.6101. The “log10(EC50)” value ([3]; 72 h QPI, MDA-MB-231, Hill fit) was −1.2344 and −1.2249 and −1.0505, the “growth rate and heterogeneity over time” value ([3]; MDA-MB-231, highest concentration, FIG. 21 F) was “first decreases in growth rate and then decreases in heterogeneity” and the “mean SGR vs SD of growth parameterized by time” value ([3]; MDA-MB-231, maximal concentration, FIG. 5D) was “reduction in growth rate before heterogeneity is affected”. The EC50 ([3]; MDA-MB-231 cell line, QPI growth rate, read-out: EC50, QPI) was 15.1 µM, the “DoR QPI” value ([3]; MDA-MB-231 cell line, depth of response, QPI) was 1.3 and the “ToR 20 μM” value ([3]; MDA-MB-231 cell line, time of response at 20 μM) was 1.0. For the same compound, the “Max Asymptote” value ([4]; 24 h QPI, MCF-7, 4-parameter Hill fit of mean SGR vs concentration, one line per replicate) was 0.02753 and 0.02505 (2×), the “log10(EC50)” value ([4]; 24 h QPI, MCF-7, Hill fit, EC50 in μM per Table 1) was −1.3545 and the “Min Asymptote” value ([4]; 72 h QPI, MCF-7, 4-parameter Hill fit of mean SGR vs concentration, one line per replicate) was 0.02137 and 0.02094 and 0.02499. The “DoR QPI” value ([4]; MCF-7 cell line, depth of response, QPI) was 2.1, the “ToR 20 μM” value ([4]; MCF-7 cell line, time of response at 20 μM) was −1.3078 and the EC50 ([4]; read-out: EC50, QPI, MCF-7 cell line, QPI growth rate) was 75.2 µM. For the same compound, the “Max Asymptote” value ([5]; 24 h QPI) was 0.01232 and 0.00969 and 0.009107, the “Min Asymptote” value ([5]; 24 h QPI) was −0.01613 and −0.02375 and −0.02493 and the “Hill Slope” value ([5]; 24 h QPI) was 2.303 and 3.2307 and 3.3723. For the same compound, the “log10(EC50)” value ([5]; 24 h QPI) was −1.1593 and −1.2498 and −1.2667, the “Max Asymptote” value ([5]; 72 h QPI) was −0.01224 and −0.01212 and −0.01166 and the “Min Asymptote” value ([5]; 72 h QPI) was 0.009052 and 0.007511 and 0.008099. The “Hill Slope” value ([5]; 72 h QPI) was 3.3746 and 3.7567 and 4.6177, the “log10(EC50)” value ([5]; 72 h QPI) was −1.2566 and −1.2595 and −1.2511 and the “response of growth rate and heterogeneity to treatment” value ([5]; BT-474, FIG. 5E, 22, 23) was “both reduced growth rate and slightly increased heterogeneity”. For the same compound, the “growth rate and heterogeneity as concentration increases” value ([5]; BT-474, FIG. 22) was “decrease in growth rate at approximately constant standard deviation”, the “growth rate and heterogeneity over time” value ([5]; BT-474, FIG. 23 Graph F) was “first experiencing reduced growth rate, and then a large spike in heterogeneity” and the “DoR QPI” value ([5]; BT-474 cell line, depth of response, QPI) was 2.5. The “ToR 20 μM” value ([5]; BT-474 cell line, time of response at 20 μM) was −0.9815 and the EC50 ([5]; read-out: EC50, QPI, BT-474 cell line, QPI growth rate) was 18 µM.
